Measurements from US20060062747A1, “Use of sweetener acids for the microbiological stabilization of foodstuffs, cosmetic products, consumer goods and pharmaceutical productions” (Nutrinova Nutrition Specialties & Food Ingredients GmbH, priority 2002, published 2006).

What was measured:
[1] = Sensory testing of sweetener acids in foods and drinks; details: in vivo
Description: Sweetener acids are the acids of known salts of high-intensity sweeteners such as acesulfame-K (=potassium salt of acesulfamic acid), sodium cyclamate or sodium saccharin. Sweetener acids which can be used are, for example, saccharin acid, cyclamic acid, glycyrrhicic acid and acesulfamic acid and also mixtures of two or more of these acids. Inventively preferred sweetener acids are acesulfamic acid, cyclamic acid and saccharin acid, and also mixtures of two or all three sweetener acids. On account of their low pKa of 1.5 to 2.5, the sweetener acids have never previously been considered as […]. […] The acid profile is balanced.
At the same time, the sweetener acids have, on a molar basis, a sweetening power equivalent to the corresponding sweetener salt. In addition to the described acid taste and sweet taste, no significant off-taste and aftertaste occur.

[2] = pH of the test solutions and drinks
testers = test: Pairwise comparison test for identical acid taste
Description: Pairwise comparison test with the question: Which sample is the more acid: (forced choice, n=13)
Pairwise comparison test with the question: Which sample is the more acid? (forced choice, n=15)

Row | Compound | time-intensity profile of the acid taste [1] | pH ([2]; Example 1, identical acid taste solutions (Table 3)) | pH ([2]; Example 4, identical acid taste solutions (Table 9)) | citric acid concentration of identical acid taste (testers; Example 1, vs 203 mg/l acesulfamic acid, citric acid + 250 mg/l acesulfame-K, n=13) [mg/L] | acetic acid concentration of identical acid taste (testers; Example 4, vs 203 mg/l acesulfamic acid, acetic acid + 250 mg/l acesulfame-K, n=14) [mg/L] | pH ([2]; Example 3, identical acid taste solutions (Table 7)) | citric acid concentration of identical acid taste (testers; Example 3, vs 200 mg/l saccharin acid, citric acid + 225 mg/l saccharin sodium, n=15) [mg/L]
1 | CC1=CC(=O)NS(=O)(=O)O1 [Acesulfamic acid] | comparable to that of malic acid | 3.07 | 3.07 | 137 | 190 |  | 
2 | O=C1NS(=O)(=O)c2ccccc21 [Saccharin acid, o-benzosulfimide] |  |  |  |  |  | 3.05 | 100
